The values below come from US10543221B2, “Beta-lactamase inhibitors, formulations, and uses thereof” (priority 2016, dated 2020).

SMILES strings stand for the structures. Where only a bound is given, the exact number is not on record here.

What is called MIC is the smallest concentration in the dilution series that meets the test's criterion for growth inhibition. For orientation: Ki means the equilibrium dissociation constant of an inhibitor or competing ligand from its target. High values mean a looser hold on the target, low ones a stronger hold on the target.

In assay [1] the test system is K. pneumoniae strain expressing KPC-2. Format: cell-based. Particulars: single agent; K. pneumoniae ATCC 4683, phenotype KPC-2. As for the experimental part: (§1) MIC Studies. Compounds were tested for synergy with the carbapenem antibiotic, imipenem, against BL21(DE3) E. coli expressing KPC-2. MIC values were determined with the Mueller-Hinton broth microdilution method. To test for inhibitory activity, compounds were dissolved in DMSO and dilutions were carried out using LB broth. Compounds were test at 100 µM with increasing concentrations of imipenem. […] After inoculation, the plates are incubated at 37 C for 24 hours. The MIC of the compounds were then determined visually. […] For Table 3, 16 μg/mL of compounds were tested for synergy with the carbapenem antibiotic, imipenem, against a K. pneumoniae strain expressing KPC-2.

The next assay addresses VIM-2 (Escherichia coli, UniProt Q5U7L7). Description: Steady-state kinetic analysis, VIM-2. Format: biochemical.
Assay [2] has as its system BL21(DE3) E. coli expressing KPC-2. Description: MIC study, synergy with imipenem, broth microdilution, E. coli. The class given is cell-based. Conditions: imipenem alone; E. coli BL21(DE3) pET-GST-blaKPC-2; 37 C, 24 hours. On the procedure: as §1
Background: Broth dilution looks for growth in wells or tubes with falling amounts of substance.

The next assay has as its target His-tag SHV-2 (Escherichia coli, UniProt P0A9Z7). On the procedure:
Steady-State Kinetic Analysis. Steady-state kinetic parameters were determined by using a Biotek Cytation Multi-Mode Reader. For KPC-2, each assay was performed in 100 mM Tris-HCl pH 7.0, 0.01% Triton X-100 at 37 C. Vmax and Km were determined from initial steady-state velocities from nitrocefin read at a wavelength of 486 nm. The kinetic parameters were obtained using the non-linear portion of the data to the Henri-Michaelis (equation 1) using SigmaPlot 12.5. […] Compounds according to Formulas 5-10 were purchased from commercial sources. The last compound was de novo synthesized.

Assay [3] concerns the target NDM-1 metallo-beta-lactamase (Klebsiella pneumoniae, UniProt C7C422). The experiment in a line: Steady-state kinetic analysis, nitrocefin hydrolysis, NDM-1. The class given is biochemical. Particulars: second NDM-1 column of Table 1.
The target in a further assay is KPC-2 beta-lactamase (Klebsiella pneumoniae, UniProt Q9F663). Description: Steady-state kinetic analysis, nitrocefin hydrolysis, KPC-2. Conditions: nitrocefin substrate. Format: biochemical. As for the experimental part:
Fractions were analyzed by SDS-PAGE.
Steady-State Kinetic Analysis. Steady-state kinetic parameters were determined by using a Biotek Cytation Multi-Mode Reader. For KPC-2, each assay was performed in 100 mM Tris-HCl pH 7.0, 0.01% Triton X-100 at 37 C. […] Compounds according to Formulas 5-10 were purchased from commercial sources. The last compound was de novo synthesized.

Sequence of NDM-1 metallo-beta-lactamase (C7C422 whole entry, looked up): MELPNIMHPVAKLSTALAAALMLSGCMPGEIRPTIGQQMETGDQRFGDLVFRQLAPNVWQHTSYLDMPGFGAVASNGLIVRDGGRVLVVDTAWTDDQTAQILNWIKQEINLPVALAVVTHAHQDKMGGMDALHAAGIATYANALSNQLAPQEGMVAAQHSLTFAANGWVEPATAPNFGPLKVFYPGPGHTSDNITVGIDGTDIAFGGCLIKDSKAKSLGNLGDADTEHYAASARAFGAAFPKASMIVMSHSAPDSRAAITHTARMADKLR
Sequence of KPC-2 beta-lactamase (Q9F663 whole entry, looked up): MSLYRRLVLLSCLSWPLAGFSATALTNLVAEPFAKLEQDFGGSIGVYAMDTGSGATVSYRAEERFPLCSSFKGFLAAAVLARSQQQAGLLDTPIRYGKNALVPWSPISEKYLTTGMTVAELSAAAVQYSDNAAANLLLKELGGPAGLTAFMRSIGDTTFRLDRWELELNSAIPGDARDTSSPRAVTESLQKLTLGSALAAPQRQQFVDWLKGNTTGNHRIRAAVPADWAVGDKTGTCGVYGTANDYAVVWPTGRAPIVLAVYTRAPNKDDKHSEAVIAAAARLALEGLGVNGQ
Sequence of His-tag SHV-2 (P0A9Z7 22-286 limits assumed): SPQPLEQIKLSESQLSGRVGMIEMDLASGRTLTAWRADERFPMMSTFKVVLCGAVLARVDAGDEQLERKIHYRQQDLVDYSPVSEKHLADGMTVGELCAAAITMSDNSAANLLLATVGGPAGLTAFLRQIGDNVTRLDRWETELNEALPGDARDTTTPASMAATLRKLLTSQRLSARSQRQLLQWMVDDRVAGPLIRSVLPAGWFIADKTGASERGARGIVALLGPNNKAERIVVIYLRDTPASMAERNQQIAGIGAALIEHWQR

On to `Cc1cc2oc(=O)cc(CP(=O)(O)O)c2cc1C` [Compound 73043], for which, in assay [1], the MIC was over 32 µg/mL.
With `O=c1cc(CP(=O)(O)O)c2ccccc2[nH]1` [Compound 994943], the affinity at VIM-2, expressed as Ki, was 9.12 µM.
The same measure, in the same setting: the result for `O=P(O)(O)Cc1cccc2cccnc12` [Compound 995016] reads 24.3 µM.
`C[C@@H](O)[C@H]1C(=O)N2C(C(=O)O)=C(SCCN=CN)C[C@H]12` [Imipenem, imipenem, reference compound]: the MIC in assay [1] was 8 µg/mL; in assay [2], 4 µg/mL.
In the case of `Cn1c(=O)cc(CP(=O)(O)O)c2ccccc21` [Compound 995018], the affinity on VIM-2, expressed as Ki, was 15.6 µM.
On the same count and under the same terms, the result for `O=c1cc(CP(=O)(O)O)c2c(F)cc(F)cc2o1` [Compound 995015] reads 4.7 µM.
Regarding `O=P(O)(O)Cc1cccc2ccc[n+]([O-])c12` [Compound 995019], the “His-tag SHV-2 Ki” value on His-tag SHV-2 was “precipitation”. In addition, the “NDM-1 Ki” value in assay [3] was “precipitation”. Moreover, the “His-Tag KPC-2 Ki” value at KPC-2 beta-lactamase is reported as “precipitation”. The “VIM-2 Ki” value at VIM-2 is on record as “precipitation”.
Turning to `Cc1cc(Br)c2c(CP(=O)(O)O)cc(=O)oc2c1` [Compound 994942], the Ki is 55 µM in assay [3] and 1.8 µM on VIM-2.
